# Experimental data: patent US20230285570A1, “THERAPEUTICALLY USEFUL CURE-PRO MOLECULES FOR E3 LIGASE MEDIATED DEGRADATION OF PROTEINS, AND METHODS OF MAKING AND USING THEM” (CORNELL UNIVERSITY, priority 2020, published 2023)
# “Also recorded” adds a separate entry of the source.
# How the values were obtained:
# MV-4-11 cells = experiment: CellTiter-Glo cell viability, MV-4-11 cells; format: cell-based; settings: co-dosed 1:1 with CRBN ligand 8049, MV-4-11, 24 h, 1 nM-100 μM each
# How it was run: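 Viability by CellTiter-Glo luminescence. One protocol: 5×10^4 MV-4-11 cells, 24 h, compounds at 1 nM-100 μM each; other: 1×10^4 cells, 72 h, 10 nM-100 μM each. BRD ligands combined 1:1 with CRBN ligands; dose-response curves fitted.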
# BRD4 [1] = target: T1, BRD4 (Homo sapiens, UniProt O60885); experiment: BRD protein family degradation in HCT116 cells, Western blot: BRD4; format: cell-based; parameters: endogenous in cells
# Description: (§1) Namalwa, Ramosm HeLa, MCF7, or HT29 HCT116 cells (2.5-3×10^6) were treated for 24 hours with the indicated compounds solubilized in DMSO. The cells were washed in ice-cold PBS and were then lysed in RIPA lysis buffer (150 mM NaCl, 5 mM EDTA, 1% NP-40, 0.5% sodium deoxycholate, 0.1% SDS, 50 mM Tris, pH 8.0.) with Roche protease inhibitor complete cocktail and phosphatase inhibitors (10 mM sodium fluoride, 10 mM sodium pyrophosphate, 1 mM sodium orthovanadate and 20 mM β-glycerophosphate). The total protein concentrations were determined by Bradford Protein Assay (Pierce) and 10-20 μg of protein was loaded onto 4-15% Tris-Glycine gradient gels (Biorad). After standard gel electrophoresis, the separated proteins were transferred to PVDF membrane by wet transfer. The immunoblots were then blocked for 1 hour in 5% skim milk in TBST or 5% BSA in TBST, according to manufacturer's instructions, before an overnight incubation at 4° C. with indicated antibodies and membranes. Membranes were then incubated with the appropriate horseradish peroxidase-conjugated secondary antibodies (1:5,000 dilution) for 1 h at room temperature and the bands were visualized using the Clarity Max Western ECL Substrate (Biorad) and the ChemiDoc Imaging System (Biorad). Signal was detected with ECL Western Blotting Substrate (Pierce) and X-ray film processed with a Konica SRX-101 X-ray film processor or captured by Bio-Rad's Chemidoc Imaging system.
# (§2) HCT116 cells (3×10^6) were treated for 24 hours with the compounds solubilized in DMSO. Compounds were added at 100 nM-10 μM each. Standardized protein samples were electrophoresed and imaged as described in the Immunoblotting section above. FIGS. 64 and 65 depict the concentration-dependence of CURE-PRO-mediated BRD2 and BRD3 degradation using MDM2 ligands.
# SLC19A1 = experiment: RT-PCR of c-MYC downstream target gene SLC19A1 in HeLa cells; format: cell-based, Human; settings: combined with MDM2 ligand 8312, HeLa, 10 μM each, 24 h
# Description: The suppression of the expression of the downstream c-MYC target, SLC19A1, was measured by RT-PCR using Power SYBR® Green Cells-to-Ct™ Kit (Life Technologies). Adherent cells were plated on 96 well plates at 5,000 cells per well were treated for 24 h with monomer compounds and compounds capable of reversible interactions (1 nM-100 μM). Cells were subsequently washed in ice-cold PBS processed according to the manufacturer's instructions. Quantitative real-time PCR was performed using a ViiA™ 7 Real-time PCR System (Applied Biosystems, Foster City, Calif., USA). GAPDH and ACTB served as internal controls.
# HeLa cells (1×10^4) were treated for 24 hours in 96 well plates with the compounds solubilized in DMSO. Compounds were added at 10 μM each and RNA expression measured by the Cells-to Ct method described above (Thermofisher).
# BRD4 [2] = target: T1, BRD4; experiment: CURE-PRO-mediated BRD4 degradation in HCT116 cells, WES (ProteinSimple); format: cell-based; parameters: endogenous in cells; settings: for BRD4 degradation: 10 μM
# Description: All cell lines were purchased from ATCC or DSMZ and grown at 37° C. with 5% CO2. Human HeLa cells were cultured in complete growth medium (Dulbecco's modified Eagle's medium (DMEM) supplemented with 10% FBS); MCF7 cells were cultured in complete growth medium (Dulbecco's modified Eagle's medium (DMEM) supplemented with 10% FBS and 0.01 mg/ml human recombinant insulin (Sigma Aldrich); Namalwa and Ramos cells were cultured in complete growth medium (RPMI 1640 medium supplemented with 10% FBS); HCT116 and HT29 cells were cultured in complete growth medium (McCoy's 5a Medium supplemented with 10% FBS). For cellular degradation of BRD4 studies cells were seeded in a 12-well plate at 70-80% confluency, allowed to attach overnight, and incubated with the indicated compounds for the indicated time. When indicated, a 15-minute pretreatment with 10 μM pomalidomide, 10 μM VHL298, 10 μM Nutlin3a, 1 μM MG-132 or 1 μM Carfilzomib was performed before the addition of CURE-PROs. For washout studies, after CURE-PRO treatment, media was aspirated and incubated with complete medium for the indicated time before lysis.
# WES Simple analysis was performed on WES system (ProteinSimple-Biotechne) according to the manufacturer's instructions. Total protein concentrations of cell lysates were determined by the Pierce BCA kit (Thermo Fisher). 3 μL of 0.3 μg/μL of the protein lysate was loaded onto a 12- to 230-kDa WES assay plate (ProteinSimple) where 300 nL sample was withdrawn through a capillary, subjected to electrophoretic separation of proteins by size, and followed by the simultaneous, HRP-based detection of proteins using the Anti-Rabbit Detection Module (Proteinsimple: #DM-001). The electropherograms were checked then the automatic peak detection was manually corrected if it was required.
# as §2, with “1 μM-10” for “100 nM-10”, “WES ProteinSimple” for “Immunoblotting”, “59, 60,” for “64”, “61” for “65”, “BRD4” for “BRD2 and BRD3”
# as §2, with “1 μM-10” for “100 nM-10”, “WES ProteinSimple” for “Immunoblotting”, “62” for “64”, “63” for “65”, “BRD4” for “BRD2 and BRD3”
# HCT116 cells (3×10^6) were treated for 24 hours with the compounds solubilized in DMSO. CURE-PRO monomers were added at 10 μM each and the proteasomal inhibitors at 1 μM. Standardized protein samples were electrophoresed and imaged as described in the WES ProteinSimple section above. FIG. 68 depicts the dependence of the proteasome for CURE-PRO-mediated BRD4 degradation.
# BRD3 = target: T2, BRD3 (Homo sapiens, UniProt Q15059); experiment: BRD protein family degradation in HCT116 cells, Western blot: BRD3; format: cell-based; settings: 1:1 with MDM2 ligands 8310 and 8312 (each), HCT116, 24 h, 100 nM-10 μM
# T2 construct: endogenous in cells; host or cells: HCT116
# T2 sequence (Q15059 whole entry): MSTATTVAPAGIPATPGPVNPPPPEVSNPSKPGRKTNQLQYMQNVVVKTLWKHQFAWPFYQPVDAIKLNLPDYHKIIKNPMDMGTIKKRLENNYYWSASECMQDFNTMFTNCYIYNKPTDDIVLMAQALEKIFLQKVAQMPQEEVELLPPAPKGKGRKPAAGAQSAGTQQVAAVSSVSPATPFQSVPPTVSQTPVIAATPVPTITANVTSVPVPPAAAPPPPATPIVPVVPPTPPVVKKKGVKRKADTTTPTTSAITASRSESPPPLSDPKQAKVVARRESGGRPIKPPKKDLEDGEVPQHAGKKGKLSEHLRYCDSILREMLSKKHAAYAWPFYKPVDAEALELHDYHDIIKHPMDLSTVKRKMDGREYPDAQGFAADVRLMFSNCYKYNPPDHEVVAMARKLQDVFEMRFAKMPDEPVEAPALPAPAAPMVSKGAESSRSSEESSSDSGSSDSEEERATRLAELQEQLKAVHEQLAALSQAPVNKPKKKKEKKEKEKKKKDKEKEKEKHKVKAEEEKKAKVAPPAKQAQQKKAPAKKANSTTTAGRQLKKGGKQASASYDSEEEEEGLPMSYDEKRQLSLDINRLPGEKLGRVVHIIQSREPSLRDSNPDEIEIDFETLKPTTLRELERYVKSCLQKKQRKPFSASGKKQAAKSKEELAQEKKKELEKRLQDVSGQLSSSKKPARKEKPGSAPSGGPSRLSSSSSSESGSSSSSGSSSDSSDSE
# Description: as §1, with “Membranes were then incubated with the appropriate horseradish peroxidase-conjugated secondary antibodies (1:5,000 dilution) for 1 h at room temperature and the bands were visualized using the Clarity Max Western ECL Substrate (Biorad) and the ChemiDoc Imaging System (Biorad).” left out, “system. […]” for “system.”
# BRD4 [3] = target: T1, BRD4; experiment: Summary of BRD4 degradation by CURE-PRO pairs, estimated from Western Blot or WES; format: cell-based; parameters: endogenous in cells
# How it was run: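 Namalwa, Ramos, HeLa, MCF7, HT29 or HCT116 cells treated 24 h with compounds in DMSO; RIPA lysates analysed by Western blot (ECL) or capillary WES immunodetection. Check mark denotes 30% to 70% or higher protein degradation.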
# BRD2 = target: T3, BRD2 (Homo sapiens, UniProt P25440); experiment: BRD protein family degradation in HCT116 cells, Western blot: BRD2; format: cell-based; settings: 1:1 with MDM2 ligands 8310 and 8312 (each), HCT116, 24 h, 100 nM-10 μM
# T3 construct: endogenous in cells; host or cells: HCT116
# T3 sequence (P25440 whole entry): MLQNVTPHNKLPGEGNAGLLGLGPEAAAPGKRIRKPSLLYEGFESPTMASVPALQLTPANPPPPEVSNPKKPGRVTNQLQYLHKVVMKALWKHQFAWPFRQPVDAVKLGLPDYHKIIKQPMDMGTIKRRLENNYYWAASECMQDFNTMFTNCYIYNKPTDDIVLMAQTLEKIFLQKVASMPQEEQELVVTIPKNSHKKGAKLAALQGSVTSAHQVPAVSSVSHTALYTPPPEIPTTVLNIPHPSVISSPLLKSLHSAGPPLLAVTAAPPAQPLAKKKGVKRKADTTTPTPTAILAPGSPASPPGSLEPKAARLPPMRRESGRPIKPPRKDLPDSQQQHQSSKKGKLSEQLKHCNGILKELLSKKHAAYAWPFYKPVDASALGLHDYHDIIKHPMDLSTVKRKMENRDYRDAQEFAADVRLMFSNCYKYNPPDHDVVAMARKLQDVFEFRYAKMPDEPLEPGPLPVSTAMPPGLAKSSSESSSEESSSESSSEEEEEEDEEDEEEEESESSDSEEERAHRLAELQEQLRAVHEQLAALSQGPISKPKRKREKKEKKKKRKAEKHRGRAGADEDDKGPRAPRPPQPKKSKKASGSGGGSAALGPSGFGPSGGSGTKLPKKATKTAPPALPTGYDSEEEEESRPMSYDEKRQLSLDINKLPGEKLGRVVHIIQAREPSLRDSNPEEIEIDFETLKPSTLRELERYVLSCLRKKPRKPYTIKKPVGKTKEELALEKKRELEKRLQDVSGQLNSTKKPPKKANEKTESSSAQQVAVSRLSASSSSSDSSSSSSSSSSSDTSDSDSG
# Description: as §1, with “Membranes were then incubated with the appropriate horseradish peroxidase-conjugated secondary antibodies (1:5,000 dilution) for 1 h at room temperature and the bands were visualized using the Clarity Max Western ECL Substrate (Biorad) and the ChemiDoc Imaging System (Biorad).” left out, “system. […]” for “system.”
smiles,measurement,setting,value
CCNC(=O)C[C@@H]1N=C(c2ccc(Cl)cc2)c2cc(OCCNC(=O)c3cccc(O)c3O)ccc2-n2c(C)nnc21 [BRD-N25],loss of cellular viability (toxicity),MV-4-11 cells,concentration-dependent loss in cellular viability; also recorded: increased toxicity
same,BRD4 degradation,"BRD4 [1]; 1:1 with MDM2 ligands 8310 and 8312 (each), HCT116, 24 h, 100 nM-10 μM",caused BRD4 degradation; also recorded: Degradation is evident
same,"selectivity of degradation among BRD2, BRD3 and BRD4","BRD4 [1]; with MDM2 ligands 8310 and 8312, HCT116, Western blot",some selectivity for BRD3 and BRD4 over BRD2 for 8310 is noted
same,suppression of SLC19A1 expression,SLC19A1,suppressed more substantially
same,BRD4 degradation with proteasome inhibitors,"BRD4 [2]; 1:1 with 8310 at 10 μM, pre-incubation with MG-132 and Carfilzomib 1 μM, HCT116","inhibited by the pre-incubation with MG-132 and Carfilzomib; also recorded: inhibited with the proteasome inhibitors, MG-132 and Carfilzomib"
same,BRD4 degradation,"BRD4 [2]; 1:1 with MDM2 ligand 8310, HCT116, 24 h",caused BRD4 degradation; also recorded: marked BRD4 degradation
same,BRD4 degradation,"BRD4 [2]; 1:1 with MDM2 ligand 8312, HCT116, 24 h",caused BRD4 degradation
same,BRD3 degradation,BRD3,degradation of BRD3; also recorded: Degradation is evident
same,"Degradation of BRD4, combination with MDM2 ligand 8310","BRD4 [3]; Table 5, aromatic 1,2-diol BRD4 ligand + 8310",√ (A black check mark indicates efficacy of 30% to 70% or higher protein degradation)
same,"Degradation of BRD4, combination with MDM2 ligand 8312","BRD4 [3]; Table 5, aromatic 1,2-diol BRD4 ligand + 8312",√ (A black check mark indicates efficacy of 30% to 70% or higher protein degradation)
same,BRD2 degradation,BRD2,BRD2 to a lesser extent; also recorded: Degradation is evident
